Experimental data published in US5885786A, “Methods for screening of substances for inhibition of multidrug resistance” (priority 1996, dated 1999).
“Also recorded” adds a separate entry of the source. Like-named read-outs stand apart in the source and are kept apart here.

How the values were obtained:
P-glycoprotein = settings: literature; cited from earlier work
[1] = tested on: glycosylceramide formation in MCF-7-AdrR cells; experiment: Inhibition of [3H]glycosylceramide formation in MCF-7-AdrR cells (TLC, liquid scintillation); assay type: cell-based; settings: for inhibition of glycosylceramide synthesis (in words): MCF-7-AdrR cells
Experimental: FIG. 9. […] Values represent the mean of determinations from three separate experiments, and are calculated as the percent glycosylceramide in the total lipid tritium extract.
FIG. 11A and FIG. 11B. […] FIG. 11: A Autoradiography. […] For autoradiography equal aliquots by volume of total lipid extract were applied to TLC plates. […] [^3 H]Glycosylceramide, visualized in panel A, was quantitated as described in the legend to FIG. 9. Each value represents mean±SEM of determinations from three separate experiments.
FIG. 12. […] [^3 H]Glycosylceramide was quantitated as described in the legend to FIG. 9. Results represents the mean±SEM of determinations from three separate experiments.
(§1) MCF-7 cells, grown in medium containing 10% FBS, were switched to media containing 5% FBS. Cell lipids were radiolabeled by adding [^3 H]serine (2.0 μCi/ml), [^3 H]palmitic acid (1.0 μCi/ml), or [^3 H]galactose (1.0 μCi/ml) to the culture medium for the indicated times. Other radiolabels can be substituted. Cells were then rinsed twice with PBS, pH 7.4, and 2 ml of ice-cold methanol containing 2% acetic acid was added. The cells were scraped free, transferred to glass test tubes (13×100 mm), and lipids were extracted by the addition of chloroform (2 ml) followed by water (2 ml). The resulting organic lower phase was withdrawn and evaporated under a stream of nitrogen. Lipids were resuspended in 100 μL of chloroform/methanol (1:1, v/v), and aliquots were applied to TLC plates.
Lipid analysis was carried out by TLC using solvent system I: chloroform/methanol/ammonium hydroxide (40:10:1, v/v) for glycosylceramide separation, solvent system II: chloroform/methanol/water (60:40:8, v/v) for sphingoglycolipid separation, or solvent system III: chloroform/methanol/acetic acid/water (50:30:7:3, v/v) for sphingomyelin separation. For determination of ceramides, an aliquot of the chloroform-soluble lipids was base-hydrolyzed in 0.1N KOH in methanol for 1 h at 37° C., lipids were re-extracted, and separated by TLC using solvent system IV: hexane/diethyl ether/formic acid (60:40:1, v/v).
Radiochromatograms were sprayed with EN^3 HANCE, and exposed for 3-7 days for autofluorgraphy. TLC areas, aligned with bands on the autoradiographs or with iodine-stained commercial lipid standards, were scraped from the plate. Water (0.5 ml) was added to the plate scrapings followed by 4.5 ml of EcoLume counting fluid, and the samples were quantitated by liquid scintillation spectrometry.

[2] = tested on: glycosylceramide synthesis in MCF-7-AdrR cells; experiment: Glycosylceramide levels in MDR cells following drug treatment, [3H]serine 48 h; assay type: cell-based; settings: FIG. 15B
MCF-7-AdrR cells = experiment: Cell proliferation (MTS) assay: adriamycin toxicity and chemosensitization; settings: for effect on adriamycin toxicity / chemosensitization (in words): 5.0 μM tested drug + adriamycin, 72 h, FIG. 15A, 16B
Description: FIG. 15A and FIG. 15B. […] FIG. 15B: Glycosylceramide levels in MDR Cells following drug treatment. […] In order to avoid differences in [^3 H]glycosylceramide values which account for cell death, the same amount of total radioactive lipid from each sample was applied to TLC separation.
FIG. 16A and FIG. 16B. […] FIG. 16A: Effect of PPMP on cellular glycosylceramide levels. […] [^3 H]Glycosylceramide was quantitated as described in the legend to FIG. 9.
Vehicle (acetone, ethanol) was always added to control (minus drug) wells. The cytotoxic activity of a drug was determined using the Promega CellTiter 96™ AQueous MTS cell proliferation assay kit. Each experimental point was performed in six replicates. MTS/PMS solution (20 μl/well) was aliquoted into all wells, and the cells were incubated for 2-3 h, or until an O.D. of 0.9-1.0 was obtained as a highest reading. Thereafter, absorbence at 490 nm was recorded using an ELISA plate reader (Molecular Devices, San Diego, Calif.).

[3] = tested on: glycosphingolipid synthesis in MCF-7-AdrR cells; experiment: Synthesis of glycosphingolipids in MCF-7-AdrR cells labeled with [3H]galactose; assay type: cell-based; settings: for inhibition at 5 µM: 5.0 μM tamoxifen, [3H]galactose 24 h, FIG. 10
Experimental: FIG. 10. […] Glc-cer, glycosylceramide; Lac-cer, lactosylceramide; Con, control; Tam, tamoxifen.
as §1
When using [^3 H]galactose, radiolabeled cells were transferred to glass tubes with PBS (1 ml), glucocerebroside (2.5 μg) was added to aid recovery, and lipids were extracted consecutively three times with 2 ml of chloroform/methanol (1:1, v/v).

## CC/C(=C(\c1ccccc1)c1ccc(OCCN(C)C)cc1)c1ccccc1 [tamoxifen]
P-glycoprotein
  binding to P-glycoprotein (in words): direct binding to P-glycoprotein
[1]; 5.0 μM drug, 24 h, MCF-7-AdrR, FIG. 11B, read-out: inhibition of glycosylceramide formation (cpm tritium)
  inhibition at 5 µM: 65%
[1]; 24 h incubation with [3H]palmitic acid, FIG. 12, read-out: half-maximal inhibition (IC50) of cellular [3H]glycosylceramide formation
  IC50: 1000 nM
[1]; FIG. 12
  maximal inhibitory effect on glycosylceramide formation (in words): highest maximal effect
[1]
  inhibition of glycosylceramide synthesis (in words): strongly inhibited
[1]; listed as Tamoxifen
  inhibition of glycosylceramide synthesis (in words): drastically inhibit
[2]; 5.0 μM, alone or with adriamycin 2.5 μM
  inhibition of glycosylceramide synthesis (in words): greatly retarded
[2]; tamoxifen 5.0 μM + adriamycin 2.5 μM
  inhibition of glycosylceramide production, tamoxifen added to adriamycin: 72%
MCF-7-AdrR cells
  effect on adriamycin toxicity / chemosensitization (in words): shifted to lower concentrations; also recorded: very potent in cell killing
MCF-7-AdrR cells; listed as Tamoxifen
  effect on adriamycin toxicity / chemosensitization (in words): potently sensitized
MCF-7-AdrR cells; MCF-7-AdrR, alone
  effect of the substance alone on cell survival (in words): not toxic
[3]; read-out: reduction of ganglioside level
  inhibition at 5 µM: 33%
[3]; read-out: reduction of glycosylceramide level
  inhibition at 5 µM: 69%
[3]; read-out: reduction of lactosylceramide level
  inhibition at 5 µM: 74%
[3]; tamoxifen, MCF-7-AdrR
  synthesis of higher gangliosides (in words): suppress synthesis of higher gangliosides
